Laboratory results as given in ChEMBL document CHEMBL1201862, “PubChem BioAssay data set” (2004).
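A five-concentration, 48-hour dose response in 96-well plates underlies each endpoint, interpolated linearly between surrounding concentrations. GI50 marks 50% less growth.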 The source made the active and inactive calls. Rule as the data show it: active = GI50 up to about 1.1 µM and inactive = higher.

What was measured:
Test in all cases: NCI anticancer screen, dose series, 48 h
786-0 = test system: 786-0
A549 = test system: A549
ACHN = test system: ACHN
CAKI-1 = test system: CAKI-1
CCRF-CEM = test system: CCRF-CEM
COLO 205 = test system: COLO 205
DLD-1 = test system: DLD-1
DMS-114 = test system: DMS-114
DMS-273 = test system: DMS-273
EKVX = test system: EKVX
HCC 2998 = test system: HCC 2998
HCT-116 = test system: HCT-116
HCT-15 = test system: HCT-15
HL-60 = test system: HL-60
HOP-18 = test system: HOP-18
HOP-62 = test system: HOP-62
HOP-92 = test system: HOP-92
HT-29 = test system: HT-29
IGROV-1 = test system: IGROV-1
K562 = test system: K562
KM-20L2 = test system: KM-20L2
LXFL 529 = test system: LXFL 529
M14 = test system: M14
M19-MEL = test system: M19-MEL
MOLT-4 = test system: MOLT-4
Malme-3M = test system: Malme-3M
NCI-H226 = test system: NCI-H226
NCI-H23 = test system: NCI-H23
NCI-H522 = test system: NCI-H522
OVCAR-3 = test system: OVCAR-3
OVCAR-4 = test system: OVCAR-4
OVCAR-5 = test system: OVCAR-5
OVCAR-8 = test system: OVCAR-8
RPMI-8226 = test system: RPMI-8226
SF-268 = test system: SF-268
SF-295 = test system: SF-295
SF-539 = test system: SF-539
SK-MEL-28 = test system: SK-MEL-28
SK-MEL-2 = test system: SK-MEL-2
SK-MEL-5 = test system: SK-MEL-5
SK-OV-3 = test system: SK-OV-3
SN12C = test system: SN12C
SNB-19 = test system: SNB-19
SNB-75 = test system: SNB-75
SNB-78 = test system: SNB-78
SR = test system: SR
SW-620 = test system: SW-620
TK-10 = test system: TK-10
U-251 = test system: U-251
UACC-257 = test system: UACC-257
UACC-62 = test system: UACC-62
UO-31 = test system: UO-31
XF498 = test system: XF498
A498 = test system: A498
KM12 = test system: KM12
LOX IMVI = test system: LOX IMVI
NCI-H460 = test system: NCI-H460
RXF 393 = test system: RXF 393
MCF7 = test system: MCF7
NCI/ADR-RES = test system: NCI/ADR-RES

`COc1ccc2cc3n(c(=O)c2c1)CCc1c-3cc(OC)c(OC)c1OC` was tested, and the GI50 (786-0) was > 100 µM (inactive), the GI50 (A549) was > 100 µM (inactive) and the GI50 (ACHN) was > 100 µM (inactive). For the same compound, the GI50 (CAKI-1) was > 100 µM (inactive), the GI50 (CCRF-CEM) was > 100 µM (inactive) and the GI50 (COLO 205) was > 100 µM (inactive). The GI50 (DLD-1) was > 100 µM (inactive), the GI50 (DMS-114) was > 100 µM (inactive) and the GI50 (DMS-273) was > 100 µM (inactive). The GI50 (EKVX) was > 100 µM (inactive), the GI50 (HCC 2998) was > 100 µM (inactive) and the GI50 (HCT-116) was > 100 µM (inactive). The GI50 (HCT-15) was over 100 µM, the GI50 (HL-60) was > 100 µM (inactive) and the GI50 (HOP-18) was > 100 µM (inactive). The GI50 (HOP-62) was 68.1 µM (inactive), the GI50 (HOP-92) was > 100 µM (inactive) and the GI50 (HT-29) was > 100 µM (inactive). The GI50 (IGROV-1) was > 100 µM (inactive), the GI50 (K562) was > 100 µM (inactive) and the GI50 (KM-20L2) was > 100 µM (inactive). For the same compound, the GI50 (LXFL 529) was > 100 µM (inactive), the GI50 (M14) was > 100 µM (inactive) and the GI50 (M19-MEL) was > 100 µM (inactive). For the same compound, the GI50 (MOLT-4) was > 100 µM (inactive), the GI50 (Malme-3M) was > 100 µM (inactive) and the GI50 (NCI-H226) was > 100 µM (inactive). The GI50 (NCI-H23) was > 100 µM (inactive), the GI50 (NCI-H522) was > 100 µM (inactive) and the GI50 (OVCAR-3) was > 100 µM (inactive). The GI50 (OVCAR-4) was > 100 µM (inactive), the GI50 (OVCAR-5) was > 100 µM (inactive) and the GI50 (OVCAR-8) was > 100 µM (inactive). For the same compound, the GI50 (RPMI-8226) was > 100 µM (inactive), the GI50 (SF-268) was > 100 µM (inactive) and the GI50 (SF-295) was > 100 µM (inactive). The GI50 (SF-539) was 60 µM (inactive), the GI50 (SK-MEL-28) was > 100 µM (inactive) and the GI50 (SK-MEL-2) was 56 µM (inactive). For the same compound, the GI50 (SK-MEL-5) was > 100 µM (inactive), the GI50 (SK-OV-3) was > 100 µM (inactive) and the GI50 (SN12C) was > 100 µM (inactive). For the same compound, the GI50 (SNB-19) was > 100 µM (inactive), the GI50 (SNB-75) was 34.7 µM (inactive) and the GI50 (SNB-78) was > 100 µM (inactive). The GI50 (SR) was > 100 µM (inactive), the GI50 (SW-620) was > 100 µM (inactive) and the GI50 (TK-10) was > 100 µM (inactive). The GI50 (U-251) was 50.6 µM (inactive), the GI50 (UACC-257) was > 100 µM (inactive) and the GI50 (UACC-62) was > 100 µM (inactive). For the same compound, the GI50 (UO-31) was > 100 µM (inactive) and the GI50 (XF498) was 50.7 µM (inactive).

In the case of `CC(=O)OCc1ncccc1C(OC(C)=O)OC(C)=O`, the GI50 (786-0) is reported as > 100 µM (inactive), the GI50 (A498) is reported as > 100 µM (inactive) and the GI50 (A549) is reported as > 100 µM (inactive). For the same compound, the GI50 (ACHN) was > 100 µM (inactive), the GI50 (CAKI-1) was > 100 µM (inactive) and the GI50 (CCRF-CEM) was > 100 µM (inactive). For the same compound, the GI50 (COLO 205) was > 100 µM (inactive), the GI50 (DLD-1) was > 100 µM (inactive) and the GI50 (DMS-114) was > 100 µM (inactive). The GI50 (DMS-273) was > 100 µM (inactive), the GI50 (EKVX) was > 100 µM (inactive) and the GI50 (HCT-116) was > 100 µM (inactive). The GI50 (HCT-15) was over 100 µM, the GI50 (HL-60) was > 100 µM (inactive) and the GI50 (HOP-18) was > 100 µM (inactive). The GI50 (HOP-62) was > 100 µM (inactive), the GI50 (HOP-92) was > 100 µM (inactive) and the GI50 (HT-29) was > 100 µM (inactive). The GI50 (IGROV-1) was > 100 µM (inactive), the GI50 (K562) was > 100 µM (inactive) and the GI50 (KM-20L2) was > 100 µM (inactive). The GI50 (KM12) was > 100 µM (inactive), the GI50 (LOX IMVI) was > 100 µM (inactive) and the GI50 (LXFL 529) was > 100 µM (inactive). For the same compound, the GI50 (M14) was > 100 µM (inactive), the GI50 (M19-MEL) was > 100 µM (inactive) and the GI50 (MOLT-4) was > 100 µM (inactive). For the same compound, the GI50 (Malme-3M) was > 100 µM (inactive), the GI50 (NCI-H23) was > 100 µM (inactive) and the GI50 (NCI-H460) was > 100 µM (inactive). For the same compound, the GI50 (NCI-H522) was > 100 µM (inactive), the GI50 (OVCAR-3) was > 100 µM (inactive) and the GI50 (OVCAR-4) was > 100 µM (inactive). For the same compound, the GI50 (OVCAR-5) was > 100 µM (inactive), the GI50 (OVCAR-8) was > 100 µM (inactive) and the GI50 (RXF 393) was > 100 µM (inactive). The GI50 (SF-268) was > 100 µM (inactive), the GI50 (SF-295) was > 100 µM (inactive) and the GI50 (SF-539) was > 100 µM (inactive). For the same compound, the GI50 (SK-MEL-28) was > 100 µM (inactive), the GI50 (SK-MEL-2) was > 100 µM (inactive) and the GI50 (SK-MEL-5) was > 100 µM (inactive). The GI50 (SK-OV-3) was > 100 µM (inactive), the GI50 (SN12C) was > 100 µM (inactive) and the GI50 (SNB-19) was > 100 µM (inactive). For the same compound, the GI50 (SNB-75) was > 100 µM (inactive), the GI50 (SNB-78) was > 100 µM (inactive) and the GI50 (SR) was > 100 µM (inactive). The GI50 (SW-620) was > 100 µM (inactive), the GI50 (TK-10) was > 100 µM (inactive) and the GI50 (U-251) was > 100 µM (inactive). The GI50 (UACC-257) was > 100 µM (inactive), the GI50 (UACC-62) was > 100 µM (inactive) and the GI50 (UO-31) was > 100 µM (inactive). The GI50 (XF498) was > 100 µM (inactive).

In the case of `O=P1(Oc2ccc(Cl)cc2Cl)Oc2ccc3ccccc3c2-c2c(ccc3ccccc23)O1`, the GI50 (A498) is reported as 24.8 µM (inactive), the GI50 (A549) is reported as 49 µM (inactive) and the GI50 (CAKI-1) is reported as 21 µM (inactive). For the same compound, the GI50 (CCRF-CEM) was 28 µM (inactive), the GI50 (COLO 205) was 46.5 µM (inactive) and the GI50 (DLD-1) was 32.1 µM (inactive). The GI50 (DMS-273) was 41.3 µM (inactive), the GI50 (EKVX) was 25.4 µM (inactive) and the GI50 (HCC 2998) was 24.9 µM (inactive). The GI50 (HCT-116) was 26.5 µM (inactive), the GI50 (HCT-15) was 26.5 µM and the GI50 (HL-60) was 22.9 µM (inactive). For the same compound, the GI50 (HOP-18) was 61.5 µM (inactive), the GI50 (HOP-62) was 20.2 µM (inactive) and the GI50 (HOP-92) was 22.4 µM (inactive). The GI50 (HT-29) was 42.1 µM (inactive), the GI50 (IGROV-1) was 26.9 µM (inactive) and the GI50 (K562) was 31.4 µM (inactive). The GI50 (KM-20L2) was 33.5 µM (inactive), the GI50 (KM12) was 32.9 µM (inactive) and the GI50 (LOX IMVI) was 24 µM (inactive). For the same compound, the GI50 (M19-MEL) was 19.9 µM (inactive), the GI50 (MCF7) was 33.7 µM (inactive) and the GI50 (MOLT-4) was 19.9 µM (inactive). The GI50 (Malme-3M) was 21.9 µM (inactive), the GI50 (NCI-H226) was 23.3 µM (inactive) and the GI50 (NCI-H23) was 29.8 µM (inactive). The GI50 (NCI-H460) was 32.4 µM (inactive), the GI50 (NCI-H522) was 19.5 µM (inactive) and the GI50 (NCI/ADR-RES) was > 68.5 µM (inactive). The GI50 (OVCAR-3) was 22.5 µM (inactive), the GI50 (OVCAR-4) was 27.9 µM (inactive) and the GI50 (OVCAR-5) was 59.7 µM (inactive). The GI50 (OVCAR-8) was 40.1 µM (inactive), the GI50 (RPMI-8226) was 18.2 µM (inactive) and the GI50 (RXF 393) was 16 µM (inactive). The GI50 (SF-268) was 34.7 µM (inactive), the GI50 (SF-295) was 34.8 µM (inactive) and the GI50 (SF-539) was 21.6 µM (inactive). For the same compound, the GI50 (SK-MEL-28) was 32.5 µM (inactive), the GI50 (SK-MEL-2) was 18.7 µM (inactive) and the GI50 (SK-MEL-5) was 49.5 µM (inactive). The GI50 (SK-OV-3) was 59.7 µM (inactive), the GI50 (SN12C) was 30.8 µM (inactive) and the GI50 (SNB-19) was 29.5 µM (inactive). For the same compound, the GI50 (SNB-75) was 31.5 µM (inactive), the GI50 (SNB-78) was 32.4 µM (inactive) and the GI50 (SW-620) was 32.4 µM (inactive). For the same compound, the GI50 (U-251) was 21.1 µM (inactive), the GI50 (UACC-257) was 59 µM (inactive) and the GI50 (UACC-62) was 26.7 µM (inactive). The GI50 (UO-31) was 20.4 µM (inactive) and the GI50 (XF498) was 24.5 µM (inactive).
